Results on 7 compounds are retold here after patent publication EP4722207A1, “OXOISOINDOLINYL-SUBSTITUTED TETRAHYDROPYRIMIDINEDIONE DERIVATIVE AND USE THEREOF” (Gluetacs Therapeutics (Shanghai) Co., Ltd., priority 2023, dated 2024).

One assay concerns H292. Nature of the assay: Cell viability assay (CellTiter-Meiluncell Luminescent), tumor cell proliferation, H292. To be noted: Homo sapiens, NCI-H292, 96 h; for inhibition at 0.01 µM: read-out: Inhibition Rate at 10 nM (%); for inhibition at 0.5 µM: read-out: Inhibition Rate at 500 nM (%).
The target in a further assay is T1, IKZF3 (Homo sapiens, UniProt Q96SW2+Q9UKT9).
T1 construct: effects of the compounds of the present disclosure on the expression of target proteins in cells; endogenous in cells; host or cells: human PBMCs (hPBMCs)
The assay is described as follows: Western-blot assay, substrate protein degradation in hPBMCs: IKZF3. To be noted: 24 hours of compound treatment, 50 nM and 500 nM. Format: cell-based.

Another assay has as its target T2, WEE1 (Homo sapiens, UniProt P30291+Q96SW2).
T2 construct: effects of the compounds of the present disclosure on the expression of target proteins in cells; endogenous in cells; host or cells: human PBMCs (hPBMCs)
The assay is described as follows: Western-blot assay, substrate protein degradation in hPBMCs: WEE1. In kind it is cell-based. The note with it: 24 hours of compound treatment, 50 nM and 500 nM.

The target of another assay is T3, IKZF2 (Homo sapiens, UniProt Q96SW2+Q9UKS7).
T3 construct: effects of the compounds of the present disclosure on the expression of target proteins in cells; endogenous in cells; host or cells: human PBMCs (hPBMCs)
Nature of the assay: Western-blot assay, substrate protein degradation in hPBMCs: IKZF2. In kind it is cell-based. The note with it: 24 hours of compound treatment, 50 nM and 500 nM.

The next assay concerns the target T4, CK1α (Homo sapiens, UniProt P48729+Q96SW2).
T4 construct: effects of the compounds of the present disclosure on the expression of target proteins in cells; endogenous in cells; host or cells: human PBMCs (hPBMCs)
Nature of the assay: Western-blot assay, substrate protein degradation in hPBMCs: CK1α. To be noted: 24 hours of compound treatment, 50 nM and 500 nM. Format: cell-based.

The target in the next assay is T5, IKZF1 (Homo sapiens, UniProt Q13422+Q96SW2).
T5 construct: effects of the compounds of the present disclosure on the expression of target proteins in cells; endogenous in cells; host or cells: human PBMCs (hPBMCs)
Nature of the assay: Western-blot assay, substrate protein degradation in hPBMCs: IKZF1. Format: cell-based. To be noted: 24 hours of compound treatment, 50 nM and 500 nM.

A further assay has as its target T6, GSPT1 (Homo sapiens, UniProt P15170+Q96SW2).
T6 construct: effects of the compounds of the present disclosure on the expression of target proteins in cells; endogenous in cells; host or cells: human PBMCs (hPBMCs)
The assay is described as follows: Western-blot assay, substrate protein degradation in hPBMCs: GSPT1. In kind it is cell-based. To be noted: 24 hours of compound treatment, 50 nM and 500 nM.

T1 sequence (Q9UKT9 whole entry): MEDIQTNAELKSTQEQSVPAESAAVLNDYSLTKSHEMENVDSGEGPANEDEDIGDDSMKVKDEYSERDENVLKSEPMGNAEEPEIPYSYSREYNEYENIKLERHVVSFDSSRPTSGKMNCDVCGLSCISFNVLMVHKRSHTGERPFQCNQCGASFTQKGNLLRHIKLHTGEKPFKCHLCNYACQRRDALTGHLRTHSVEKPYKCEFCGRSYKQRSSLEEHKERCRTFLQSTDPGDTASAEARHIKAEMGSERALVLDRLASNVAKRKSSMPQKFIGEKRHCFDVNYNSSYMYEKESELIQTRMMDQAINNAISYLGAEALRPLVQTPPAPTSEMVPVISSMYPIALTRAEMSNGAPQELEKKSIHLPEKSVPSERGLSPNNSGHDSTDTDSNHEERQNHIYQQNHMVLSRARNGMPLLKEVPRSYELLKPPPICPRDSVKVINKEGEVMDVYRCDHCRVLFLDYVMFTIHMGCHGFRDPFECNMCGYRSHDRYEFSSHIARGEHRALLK
T1 sequence (Q96SW2 whole entry): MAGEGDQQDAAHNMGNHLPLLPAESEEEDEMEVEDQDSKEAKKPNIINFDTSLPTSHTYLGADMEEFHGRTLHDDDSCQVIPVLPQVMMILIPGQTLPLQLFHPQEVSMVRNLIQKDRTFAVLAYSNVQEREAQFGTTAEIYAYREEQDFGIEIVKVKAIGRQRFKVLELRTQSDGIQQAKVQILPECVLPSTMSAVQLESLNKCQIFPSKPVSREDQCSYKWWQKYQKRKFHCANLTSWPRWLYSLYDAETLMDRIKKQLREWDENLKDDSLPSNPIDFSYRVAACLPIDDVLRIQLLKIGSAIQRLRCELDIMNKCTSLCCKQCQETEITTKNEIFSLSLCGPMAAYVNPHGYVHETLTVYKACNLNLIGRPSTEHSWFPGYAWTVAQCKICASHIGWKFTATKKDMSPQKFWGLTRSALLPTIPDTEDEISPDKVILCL
T1 sequence (Q16531 whole entry partner): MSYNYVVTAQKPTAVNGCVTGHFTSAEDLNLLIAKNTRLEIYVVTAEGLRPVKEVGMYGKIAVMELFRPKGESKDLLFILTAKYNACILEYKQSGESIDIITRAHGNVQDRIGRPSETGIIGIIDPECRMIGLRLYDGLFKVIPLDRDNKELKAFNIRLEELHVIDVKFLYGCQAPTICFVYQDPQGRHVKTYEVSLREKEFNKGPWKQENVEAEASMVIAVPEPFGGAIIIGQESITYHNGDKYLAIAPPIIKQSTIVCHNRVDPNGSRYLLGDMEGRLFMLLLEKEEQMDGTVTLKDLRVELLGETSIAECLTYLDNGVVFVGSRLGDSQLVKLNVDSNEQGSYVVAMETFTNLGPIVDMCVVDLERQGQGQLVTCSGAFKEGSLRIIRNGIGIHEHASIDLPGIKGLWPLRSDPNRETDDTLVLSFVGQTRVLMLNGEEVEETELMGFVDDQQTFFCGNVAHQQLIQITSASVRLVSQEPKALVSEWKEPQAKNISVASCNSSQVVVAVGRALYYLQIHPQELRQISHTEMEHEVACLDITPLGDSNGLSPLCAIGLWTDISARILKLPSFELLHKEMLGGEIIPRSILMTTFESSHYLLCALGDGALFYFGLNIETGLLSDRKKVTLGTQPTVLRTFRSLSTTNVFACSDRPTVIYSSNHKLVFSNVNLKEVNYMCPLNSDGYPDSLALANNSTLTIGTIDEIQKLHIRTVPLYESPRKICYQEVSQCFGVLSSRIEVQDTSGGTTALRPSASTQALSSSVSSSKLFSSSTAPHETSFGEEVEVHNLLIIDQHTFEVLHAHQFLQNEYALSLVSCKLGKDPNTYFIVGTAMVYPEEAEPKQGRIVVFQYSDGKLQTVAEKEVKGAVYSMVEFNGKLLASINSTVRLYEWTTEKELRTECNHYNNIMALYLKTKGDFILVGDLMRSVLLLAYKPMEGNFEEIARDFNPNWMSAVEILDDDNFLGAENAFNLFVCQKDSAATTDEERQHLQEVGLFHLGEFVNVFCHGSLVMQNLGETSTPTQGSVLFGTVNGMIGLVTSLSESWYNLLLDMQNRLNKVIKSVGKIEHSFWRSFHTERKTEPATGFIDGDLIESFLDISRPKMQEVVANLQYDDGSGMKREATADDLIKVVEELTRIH
T2 sequence (P30291 whole entry): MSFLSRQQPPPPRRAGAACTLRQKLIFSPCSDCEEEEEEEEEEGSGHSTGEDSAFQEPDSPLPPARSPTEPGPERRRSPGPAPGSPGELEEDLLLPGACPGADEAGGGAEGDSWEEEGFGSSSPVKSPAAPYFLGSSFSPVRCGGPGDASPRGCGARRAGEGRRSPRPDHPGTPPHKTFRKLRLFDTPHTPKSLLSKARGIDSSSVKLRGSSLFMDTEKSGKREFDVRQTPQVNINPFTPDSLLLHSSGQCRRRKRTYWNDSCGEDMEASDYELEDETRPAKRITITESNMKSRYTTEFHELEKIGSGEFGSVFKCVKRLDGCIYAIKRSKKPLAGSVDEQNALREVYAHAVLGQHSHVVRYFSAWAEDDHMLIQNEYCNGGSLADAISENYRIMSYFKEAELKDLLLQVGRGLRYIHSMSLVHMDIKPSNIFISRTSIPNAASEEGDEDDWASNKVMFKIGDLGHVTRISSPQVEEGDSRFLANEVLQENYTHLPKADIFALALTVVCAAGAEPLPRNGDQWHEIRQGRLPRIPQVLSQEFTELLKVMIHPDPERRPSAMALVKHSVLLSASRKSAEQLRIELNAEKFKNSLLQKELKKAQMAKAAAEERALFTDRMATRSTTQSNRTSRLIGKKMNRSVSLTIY
T2 sequence (Q96SW2 whole entry): as the sequence (Q96SW2 whole entry) above
T2 sequence (Q16531 whole entry partner): as the sequence (Q16531 whole entry partner) above
T3 sequence (Q9UKS7 whole entry): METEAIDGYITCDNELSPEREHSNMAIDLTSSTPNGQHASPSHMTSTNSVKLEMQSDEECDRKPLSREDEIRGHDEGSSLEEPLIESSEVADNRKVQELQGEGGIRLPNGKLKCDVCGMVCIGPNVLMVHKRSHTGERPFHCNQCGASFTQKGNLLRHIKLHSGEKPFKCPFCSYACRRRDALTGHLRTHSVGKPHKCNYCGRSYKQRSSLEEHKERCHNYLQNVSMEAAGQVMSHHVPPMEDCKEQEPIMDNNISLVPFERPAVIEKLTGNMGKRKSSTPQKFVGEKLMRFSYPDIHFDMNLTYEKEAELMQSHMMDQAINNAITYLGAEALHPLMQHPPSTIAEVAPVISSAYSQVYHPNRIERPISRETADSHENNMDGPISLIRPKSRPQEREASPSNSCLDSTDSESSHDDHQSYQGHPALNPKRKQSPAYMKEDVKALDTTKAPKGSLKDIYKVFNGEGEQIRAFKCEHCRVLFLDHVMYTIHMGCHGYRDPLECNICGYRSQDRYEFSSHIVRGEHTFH
T3 sequence (Q96SW2 whole entry): as the sequence (Q96SW2 whole entry) above
T3 sequence (Q16531 whole entry partner): as the sequence (Q16531 whole entry partner) above
T4 sequence (P48729 whole entry): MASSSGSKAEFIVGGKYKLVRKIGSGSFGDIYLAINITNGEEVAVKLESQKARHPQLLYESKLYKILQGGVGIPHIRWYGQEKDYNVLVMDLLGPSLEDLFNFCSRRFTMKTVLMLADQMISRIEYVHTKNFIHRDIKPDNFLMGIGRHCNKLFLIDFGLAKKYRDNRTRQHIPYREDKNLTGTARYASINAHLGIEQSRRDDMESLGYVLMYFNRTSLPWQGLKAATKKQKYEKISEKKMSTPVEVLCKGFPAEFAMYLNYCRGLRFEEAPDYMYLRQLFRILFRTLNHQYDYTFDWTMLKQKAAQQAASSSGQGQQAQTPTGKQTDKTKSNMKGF
T4 sequence (Q96SW2 whole entry): as the sequence (Q96SW2 whole entry) above
T4 sequence (Q16531 whole entry partner): as the sequence (Q16531 whole entry partner) above
T6 sequence (P15170 whole entry): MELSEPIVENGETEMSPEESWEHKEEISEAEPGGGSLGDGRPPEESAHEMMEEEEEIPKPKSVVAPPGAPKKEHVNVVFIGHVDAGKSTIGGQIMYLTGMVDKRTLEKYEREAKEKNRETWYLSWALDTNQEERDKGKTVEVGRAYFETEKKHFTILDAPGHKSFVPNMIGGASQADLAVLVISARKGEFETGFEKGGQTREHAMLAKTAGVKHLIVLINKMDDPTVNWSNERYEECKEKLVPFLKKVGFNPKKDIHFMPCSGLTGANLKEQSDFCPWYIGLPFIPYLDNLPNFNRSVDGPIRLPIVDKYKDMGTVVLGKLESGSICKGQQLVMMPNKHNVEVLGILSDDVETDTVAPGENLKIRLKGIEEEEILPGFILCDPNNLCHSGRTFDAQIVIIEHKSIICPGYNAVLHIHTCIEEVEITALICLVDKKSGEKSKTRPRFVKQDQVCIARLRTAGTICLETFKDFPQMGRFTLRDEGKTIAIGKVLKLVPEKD
T6 sequence (Q96SW2 whole entry): as the sequence (Q96SW2 whole entry) above
T6 sequence (Q16531 whole entry partner): as the sequence (Q16531 whole entry partner) above

For orientation: inhibition means the relative decrease from the control value, in per cent. Regarding `O=C1CCN(N2C(=O)c3ccc(CN4CCN(c5ncnc6sc7c(c56)CCC7)CC4)cc3C2=O)C(=O)N1` [GT-08103, 5-((4-(6,7-dihydro-5H-cyclopenta[4,5]thieno[2,3-d]pyrimidin-4-yl)piperazin-1-yl)methyl)-2-(2,4-dioxotetrahydropyrimidin-1(2H)-yl)isoindoline-1,3-dione], in the assay on H292, the inhibition at 0.01 µM lay within 15 to 20% and the inhibition at 0.5 µM fell in the range of 15 to 20%. In addition, the “substrate protein remaining % IKZF3” value at IKZF3 is on record as “A (0% ≤ substrate protein remaining % ≤ 80%)”. Besides, the “substrate protein remaining % WEE1” value at WEE1 is on record as “B (80%< substrate protein remaining %≤ 100%)”. Also, the “substrate protein remaining % IKZF2” value on IKZF2 is reported as “A (0% ≤ substrate protein remaining % ≤ 80%)”. The “substrate protein remaining % CK1α” value on CK1α is listed as “B (80%< substrate protein remaining %≤ 100%)”. Also, the “substrate protein remaining % IKZF1” value on IKZF1 was “B (80%< substrate protein remaining %≤ 100%)”. The “substrate protein remaining % GSPT1” value on GSPT1 is reported as “B (80%< substrate protein remaining %≤ 100%)”.
`O=C1CCN(N2C(=O)c3ccc(CN4CCN(c5ncc6ccsc6n5)CC4)cc3C2=O)C(=O)N1` [GT-08105, 2-(2,4-dioxotetrahydropyrimidin-1(2H)-yl)-5-((4-(thieno[2,3-d]pyrimidin-2-yl)piperazin-1-yl)methyl)isoindoline-1,3-dione]: in the assay on H292, the inhibition at 0.01 µM fell in the range of 10 to 15% and the inhibition at 0.5 µM fell in the range of 10 to 15%. For the same compound, the “substrate protein remaining % IKZF3” value on IKZF3 is “A (0% ≤ substrate protein remaining % ≤ 80%)”. In addition, the “substrate protein remaining % WEE1” value on WEE1 was “B (80%< substrate protein remaining %≤ 100%)”. In addition, on IKZF2, the “substrate protein remaining % IKZF2” value is “A (0% ≤ substrate protein remaining % ≤ 80%)”. Further, the “substrate protein remaining % CK1α” value at CK1α is recorded as “B (80%< substrate protein remaining %≤ 100%)”. For the same compound, at IKZF1, the “substrate protein remaining % IKZF1” value is listed as “B (80%< substrate protein remaining %≤ 100%)”. Besides, the “substrate protein remaining % GSPT1” value on GSPT1 is recorded as “A (0% ≤ substrate protein remaining % ≤ 80%)”.
For `O=C1CCN(N2Cc3cc(CN4CCC(c5ncc6ccsc6n5)CC4)ccc3C2=O)C(=O)N1` [GT-08115, 1-(1-oxo-5-((4-(thieno[2,3-d]pyrimidin-2-yl)piperidin-1-yl)methyl)isoindolin-2-yl)dihydropyrimidine-2,4(1H,3H)-dione], in the assay on H292, the inhibition at 0.01 µM was in the range of 20 to 40% and the inhibition at 0.5 µM lay within 15 to 20%. Moreover, the “substrate protein remaining % IKZF3” value on IKZF3 was “B (80%< substrate protein remaining %≤ 100%)”. For the same compound, on WEE1, the “substrate protein remaining % WEE1” value is “B (80%< substrate protein remaining %≤ 100%)”. Further, the “substrate protein remaining % IKZF2” value on IKZF2 is reported as “B (80%< substrate protein remaining %≤ 100%)”. Also, the “substrate protein remaining % CK1α” value at CK1α is “A (0% ≤ substrate protein remaining % ≤ 80%)”. For the same compound, the “substrate protein remaining % IKZF1” value on IKZF1 was “B (80%< substrate protein remaining %≤ 100%)”. In addition, the “substrate protein remaining % GSPT1” value at GSPT1 was “A (0% ≤ substrate protein remaining % ≤ 80%)”.
As for `O=C1CCN(N2C(=O)c3ccc(CN4CCC(c5ncnc6sc7c(c56)CCCC7)CC4)cc3C2=O)C(=O)N1` [GT-08424, 2-(2,4-dioxotetrahydropyrimidin-1(2H)-yl)-5-((4-(5,6,7,8-tetrahydrobenzo[4,5]thieno[2,3-d]pyrimidin-4-yl)piperidin-1-yl)methyl)isoindoline-1,3-dione], in the assay on H292, the inhibition at 0.01 µM lay within 20 to 40% and the inhibition at 0.5 µM is 10 to 15%. Also, the “substrate protein remaining % IKZF3” value at IKZF3 is given as “B (80%< substrate protein remaining %≤ 100%)”. For the same compound, the “substrate protein remaining % WEE1” value on WEE1 was “B (80%< substrate protein remaining %≤ 100%)”. For the same compound, the “substrate protein remaining % IKZF2” value on IKZF2 was “B (80%< substrate protein remaining %≤ 100%)”. On CK1α, the “substrate protein remaining % CK1α” value was “A (0% ≤ substrate protein remaining % ≤ 80%)”. In addition, at IKZF1, the “substrate protein remaining % IKZF1” value is “B (80%< substrate protein remaining %≤ 100%)”. Besides, the “substrate protein remaining % GSPT1” value on GSPT1 is “A (0% ≤ substrate protein remaining % ≤ 80%)”.
As to `O=C1CCN(N2C(=O)c3ccc(CN4CCC(c5ncc6ccsc6n5)CC4)cc3C2=O)C(=O)N1` [GT-08427, 2-(2,4-dioxotetrahydropyrimidin-1(2H)-yl)-5-((4-(thieno[2,3-d]pyrimidin-2-yl)piperidin-1-yl)methyl)isoindoline-1,3-dione], in the assay with H292, the inhibition at 0.01 µM was in the range of 15 to 20% and the inhibition at 0.5 µM is 20 to 40%. At IKZF3, the “substrate protein remaining % IKZF3” value was “B (80%< substrate protein remaining %≤ 100%)”. For the same compound, at WEE1, the “substrate protein remaining % WEE1” value is reported as “A (0% ≤ substrate protein remaining % ≤ 80%)”. In addition, the “substrate protein remaining % IKZF2” value at IKZF2 is “A (0% ≤ substrate protein remaining % ≤ 80%)”. For the same compound, the “substrate protein remaining % CK1α” value on CK1α is on record as “B (80%< substrate protein remaining %≤ 100%)”. Moreover, on IKZF1, the “substrate protein remaining % IKZF1” value is “B (80%< substrate protein remaining %≤ 100%)”. The “substrate protein remaining % GSPT1” value on GSPT1 is recorded as “B (80%< substrate protein remaining %≤ 100%)”.
As to `Cc1csc2ncnc(C3=CCN(Cc4ccc5c(c4)C(=O)N(N4CCC(=O)NC4=O)C5=O)CC3)c12` [GT-08428, 2-(2,4-dioxotetrahydropyrimidin-1(2H)-yl)-5-((4-(5-methylthieno[2,3-d]pyrimidin-4-yl)-3,6-dihydropyridin-1(2H)-yl)methyl)isoindoline-1,3-dione], in the assay on H292, the inhibition at 0.01 µM was in the range of 5 to 10% and the inhibition at 0.5 µM was in the range of 20 to 40%. Further, at IKZF3, the “substrate protein remaining % IKZF3” value is on record as “A (0% ≤ substrate protein remaining % ≤ 80%)”. In addition, the “substrate protein remaining % WEE1” value at WEE1 is “A (0% ≤ substrate protein remaining % ≤ 80%)”. Also, at IKZF2, the “substrate protein remaining % IKZF2” value was “A (0% ≤ substrate protein remaining % ≤ 80%)”. The “substrate protein remaining % CK1α” value at CK1α is reported as “B (80%< substrate protein remaining %≤ 100%)”. For the same compound, the “substrate protein remaining % IKZF1” value at IKZF1 was “B (80%< substrate protein remaining %≤ 100%)”. The “substrate protein remaining % GSPT1” value at GSPT1 is “B (80%< substrate protein remaining %≤ 100%)”.
On to `O=C1CCN(N2C(=O)c3ccc(CN4CC=C(c5ncnc6sc(-c7ccccc7)cc56)CC4)cc3C2=O)C(=O)N1` [GT-08430, 2-(2,4-dioxotetrahydropyrimidin-1(2H)-yl)-5-((4-(6-phenylthieno[2,3-d]pyrimidin-4-yl)-3,6-dihydropyridin-1(2H)-yl)methyl)isoindoline-1,3-dione], for which, in the assay with H292, the inhibition at 0.01 µM lay within 15 to 20% and the inhibition at 0.5 µM was 10 to 15%. For the same compound, on IKZF3, the “substrate protein remaining % IKZF3” value was “B (80%< substrate protein remaining %≤ 100%)”. Also, the “substrate protein remaining % WEE1” value on WEE1 was “A (0% ≤ substrate protein remaining % ≤ 80%)”. For the same compound, the “substrate protein remaining % IKZF2” value on IKZF2 is recorded as “B (80%< substrate protein remaining %≤ 100%)”. At CK1α, the “substrate protein remaining % CK1α” value is “B (80%< substrate protein remaining %≤ 100%)”. Besides, at IKZF1, the “substrate protein remaining % IKZF1” value is given as “B (80%< substrate protein remaining %≤ 100%)”. Also, the “substrate protein remaining % GSPT1” value at GSPT1 is listed as “B (80%< substrate protein remaining %≤ 100%)”.
